Read-outs that look alike come from different tables or passages of the source.

The test system of the assay is Plasmodium falciparum 3D7. Put plainly: Plasmodium falciparum asexual blood-stage (ABS) assay. The class given is cell-based. Conditions: Plasmodium falciparum, 3D7. Here is the method: Plasmodium falciparum 3D7 strain was used for the P. falciparum asexual blood-stage (ABS) assay, for which the cells were resuscitated from the stabilate and maintained at 5% haematocrit. Red blood cells obtained from the hospital were used to maintain the culture at 1% parasitaemia while screening.
Plasmodium falciparum 3D7 cells were used as a target strain for the assay. Mefloquine (Sigma-Aldrich) was used as a standard inhibitor. At day 1, […] of 10 mM mefloquine was added to columns 12 and 24 of the sterile 384-well black, clear-bottom, cell culture assay plates followed by compound curves which were added using Echo. The P. falciparum 3D7 cells were counted and 20 ml of culture was prepared at 5% haematocrit, 0.3% parasitaemia (as one batch, i.e., 12 plates, prepare 260 ml, to allow for WellMate prime volume) for each plate. From this, 50 µl of culture was added to all wells on all plates using WellMate with small bore tubing on full (S-1) speed. The plates were placed on the bottom shelf of the incubator, with a maximum stack height of 4 plates, preferring the front of the shelf and were incubated for 72 h at 37 °C in an atmosphere of special gas mix (1% O2, 3% CO2, balance N2).
. Ten μl of the prepared buffer was added to each well on each of the assay plates and incubated overnight in the dark at room temperature. The plates were read on Victor plate reader using ‘384sybrgreen’ protocol (excitation 485 nm, emission 528 nm) after which the plate contents were aspirated into 5% Virkon, and disposed of after autoclaving. Percentage inhibition for each test compound was calculated using the following equation: %Inhibition=100-TEST COMPOUND-BLANK/NO INHIBITION-BLANK∗100)
EC50 values for standard inhibitors were determined using non-linear regression curve-fitting within Activity Base data analysis template.

In the case of `O=C(NO)c1ccc(Cn2cc(-c3ccc(CN4CCCC4)cc3)nn2)cc1` [FNDR-20123], the half-maximal inhibitory concentration (IC50) by setting is: (read-out: Anti-malarial IC50) 40 nM; (read-out: Anti-malarial activity Asexual Blood Stage IC50) 42 nM.

Source of the values: PMC7549214 (Malaria Journal, 2020).
